We go through eight molecules from PubChem BioAssay AID651786 (The Scripps Research Institute Molecular Screening Center, 2012).

The source made the active and inactive calls.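 How the source made its calls: active means IC50 at or below 10 µM; inactive means IC50 above 10 µM.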 Bounds are passed on as bounds.

For this experiment, the target named is Nuclear receptor coactivator 1 (Homo sapiens) (UniProt Q15788). Description: SRC1 (NCOA1) coactivator inhibitors, late-stage follow-up, selectivity assay for SRC3 inhibitor project, cell-based, HEK293, GAL4-SRC1 luciferase, powder samples (AID 651786). To be noted: HEK293 GAL4-SRC1 luciferase reporter, luminescence. In general terms: A reporter such as luciferase makes a cellular process visible.
Sequence of Nuclear receptor coactivator 1 (Homo sapiens) (Q15788 whole entry, looked up, the tested form may be a part): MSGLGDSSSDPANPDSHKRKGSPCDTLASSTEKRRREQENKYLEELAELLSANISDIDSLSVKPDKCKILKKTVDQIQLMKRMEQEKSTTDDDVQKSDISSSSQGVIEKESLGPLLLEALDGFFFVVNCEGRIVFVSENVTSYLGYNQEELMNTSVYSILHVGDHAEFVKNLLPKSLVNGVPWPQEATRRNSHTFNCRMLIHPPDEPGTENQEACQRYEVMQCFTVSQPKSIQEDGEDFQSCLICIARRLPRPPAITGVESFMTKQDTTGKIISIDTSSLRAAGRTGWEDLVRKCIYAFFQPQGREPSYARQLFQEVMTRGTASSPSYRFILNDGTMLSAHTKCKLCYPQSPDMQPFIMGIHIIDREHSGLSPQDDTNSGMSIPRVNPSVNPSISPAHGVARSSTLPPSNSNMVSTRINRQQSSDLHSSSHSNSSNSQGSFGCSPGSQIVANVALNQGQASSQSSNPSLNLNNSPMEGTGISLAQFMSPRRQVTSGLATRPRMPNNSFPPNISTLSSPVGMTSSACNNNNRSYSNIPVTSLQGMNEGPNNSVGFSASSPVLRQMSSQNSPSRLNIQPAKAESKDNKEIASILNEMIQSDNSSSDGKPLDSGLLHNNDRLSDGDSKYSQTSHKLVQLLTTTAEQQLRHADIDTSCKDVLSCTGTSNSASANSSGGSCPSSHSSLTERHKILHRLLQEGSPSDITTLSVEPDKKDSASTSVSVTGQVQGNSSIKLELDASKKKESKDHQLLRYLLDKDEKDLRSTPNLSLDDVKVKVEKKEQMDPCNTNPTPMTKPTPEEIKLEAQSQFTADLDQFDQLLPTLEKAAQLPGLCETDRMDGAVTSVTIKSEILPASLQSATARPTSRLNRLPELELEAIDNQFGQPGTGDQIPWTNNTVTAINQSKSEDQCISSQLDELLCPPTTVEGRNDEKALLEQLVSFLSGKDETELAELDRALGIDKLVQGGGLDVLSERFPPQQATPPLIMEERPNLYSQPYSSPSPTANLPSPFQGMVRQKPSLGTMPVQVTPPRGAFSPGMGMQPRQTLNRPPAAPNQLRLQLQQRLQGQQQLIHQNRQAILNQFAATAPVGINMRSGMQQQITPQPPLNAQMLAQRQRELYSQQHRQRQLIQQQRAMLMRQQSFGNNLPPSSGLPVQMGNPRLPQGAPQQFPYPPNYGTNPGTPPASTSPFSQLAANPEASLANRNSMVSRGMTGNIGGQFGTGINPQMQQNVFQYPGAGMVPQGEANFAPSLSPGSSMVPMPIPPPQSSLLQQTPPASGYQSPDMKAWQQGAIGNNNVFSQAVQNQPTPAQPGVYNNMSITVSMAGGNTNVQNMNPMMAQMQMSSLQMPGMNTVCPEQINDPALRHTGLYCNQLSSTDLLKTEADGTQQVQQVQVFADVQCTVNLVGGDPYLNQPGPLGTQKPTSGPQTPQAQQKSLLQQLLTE

For the molecule `CN1C(=O)C2(C(C#N)=C(N)N(c3cc(Cl)cc(Cl)c3)C3=C2C(=O)CCC3)c2ccccc21` (stereo not drawn), the IC50 – broadly, the concentration needed to halve the response being measured – is > 35.9 µM (inactive). For `O=C(Nc1ccccc1Oc1ccccc1)c1cc([N+](=O)[O-])ccc1Cl`, the IC50 was 6.87 µM. The value for `Cc1ccc(OCC(=O)c2cc(C)n(-c3ccccc3)c2C)c([N+](=O)[O-])n1` was “inactive”; that for `CC(C)(C)c1ccc(-c2noc(CCC(=O)Nc3cccnc3)n2)cc1` was > 35.9 µM (inactive); that for `OCCN1CCN(C(=S)c2ccc(-c3ccccc3)cc2)CC1` was 3.01 µM. Turning to `O=C(COC(=O)c1ccc[nH]c1=O)Nc1ccc(N2CCCCC2)cc1`, the IC50 is > 35.9 µM (inactive). On to `CN1C(=O)C2(C(C#N)=C(N)N(c3cc(Cl)cc(Cl)c3)C3=C2C(=O)CC(C)(C)C3)c2ccccc21` (stereo not drawn), for which the IC50 is > 35.9 µM (inactive). For the molecule `CCCNC(=O)c1nnsc1S(=O)(=O)c1ccc(Cl)cc1`, the IC50 is 6.16 µM.
